# From patent publication US8642350B2, “Sensor material and uses thereof to simultaneously sense two analytes: oxygen and pH or acidic/basic gaseous ions” (University College Cork, National University of Ireland, …, priority 2010, dated 2014)
# Legend:
# Format in all cases: physicochemical
# [1] = Oxygen calibration by phosphorescence lifetime (quenching by dissolved O2); conditions: for quenching by dissolved O2: sensors in aqueous solutions, 0-21 kPa O2; for Lifetime 0% O2 / Lifetime 21% O2: solid state sensor form; for Lifetime 0% O2: 0% O2, 24° C.; for Lifetime 21% O2: 21% O2, 24° C.
# Description: (§1) FIG. 2: Oxygen calibration in the phosphorescence lifetime (A) and Stern-Volmer (right) scales for the Pt-OEP-CH═N—CH3 (♦) and Pd-OEP-CH═N—CH3 (▪) sensors, measured in sodium acetate, pH 6 at 24° C. (B). pH calibration of Pt-OEP-CH═N—CH3 (absorbance) at certain pH steps, the two black bars show the bandwidth of commercial LEDs at 400 nm and 450 nm (C) and of Pt-OEP-CH═N—CH3 (♦) and Pd-OEP-CH═N—CH3 (▪) at 24° C. and 30° C. respectively (emission intensity) (D), measured in sodium acetate.
# (§2) This cocktail of sensor components was applied in 2 μl aliquots on a solid support (e.g. Mylar® foil or microporous polymeric membrane) and left to evaporate all the solvents. […] Other sensor formulations can also be used, such formulations are known to specialists in the area.
# (§3) Thin film (˜5 μm) sensor coatings produced according to Table 1 were studied for their photophysical, O2 and pH sensing properties.
# The unquenched phosphorescence lifetime of 70 μs in O2-free buffer (at 24° C.) was close to that of the other Pt-porphyrins and O2 sensors on their basis. In air-saturated solution (20.9 kPa or 250 μM) the lifetime was reduced by approximately 60%. […] Full O2 calibrations of the two sensors show a pronounced non-linearity of Stern-Volmer plots (in FIG. 2B).
# [2] = pH calibration (pKa) of solid state sensors by absorbance / phosphorescence intensity; conditions: for pH range covered by the sensor: air-saturated buffer; for pKa value (21% O2) 0 mM NaCl / pKa value (21% O2) 500 mM NaCl: solid state sensor form
# Description: as §1, §2, §3
# With respect to their pH sensitivity, the two sensors produced the anticipated spectral responses which occurred in the useful range of pH. […] However, the decrease in phosphorescence intensity signal occurred without any significant changes in the phosphorescence lifetime.
# [3] = Absorption and emission spectra of thin film sensor coatings; conditions: solid state sensor form
# Source text: On the other hand, protonation of the peripheral group (Schiff base) leads to the formation of a delocalised carbocation represented by 10 resonant structures. This process is accompanied by major spectral changes: a shift in absorbance peak from 398 nm to 443 nm and the disappearance of the porphyrin type of electronic spectra and phosphorescence. The process is reversible and potentially allows for sensing of the protonation or pH changes by means of absorbance or phosphorescence measurements.
# as §2, §3
Compound,cross-sensitivity of O2 response to pH ([1]; phosphorescence lifetime modality),O2 range the dual-analyte sensor is well suited for ([1]; physiological range) [µM],"unquenched lifetime ([1]; sensor, unquenched) [µs]",quenching by dissolved O2 [1],Lifetime 0% O2 [1],Lifetime 21% O2 [1],pH range covered by the sensor ([2]; 24° C.),pH range the dual-analyte sensor is well suited for ([2]; physiological range),pKa value (21% O2) 0 mM NaCl ([2]; 24° C.),pKa value (21% O2) 0 mM NaCl ([2]; 30° C.),pKa value (21% O2) 500 mM NaCl ([2]; 24° C.),pKa value (21% O2) 500 mM NaCl ([2]; 30° C.),Emission [3] [nm],Absorption ([3]; pH 2.0),Absorption ([3]; pH 8.0),reduction of lifetime in air-saturated solution ([1]; air-saturated solution (20.9 kPa or 250 μM O2)),"unquenched phosphorescence lifetime ([1]; sensor in O2-free buffer, 24° C.) [μs]",pKa more acidic than the Pd-OEP-CH═N—CH3 sensor ([2]; difference between the two sensors) [pH unit]
CN=CC1=C2N=C(C=c3c(C)c(CCC(=O)OC)c4[n]3[Pd][n]3c(c(C)c(CCC(=O)OC)c31)C=C1N=C(C=4)C(C)=C1CCC(=O)OC)C(CCC(=O)OC)=C2C [Pd—CPE—CH═NMe],no cross-sensitivity to pH,0 to 200,147,more favorable quenchability,172 (24° C.) μs,33 (24° C.) μs,6.5-8.0,6-8,5.9 (24° C.),6.9 (30° C.),5.5 (24° C.),6.5 (30° C.),673,443 (pH 2.0) nm,398 (pH 8.0) nm,–,–,–
CCC1=C(CC)c2cc3[n-]c(c(C=NC)c4nc(cc5[n-]c(cc1n2)c(CC)c5CC)C(CC)=C4CC)c(CC)c3CC.[Pt+2] [Pt—OEP—CH═NMe],–,–,–,moderate quenching,60 (24° C.) μs,36 (24° C.) μs,5-7,–,4.3 (24° C.),5.9 (30° C.),–,5.5 (30° C.),670,443 (pH 2.0) nm,398 (pH 8.0) nm,approximately 60%,70,~1
